Experimental data from ChEMBL document CHEMBL1130438, “The Gif system as a tool in medicinal chemistry: The oxidation of Sch 57726 under GoAggIII conditions” (Bioorg Med Chem Lett, 1997).

Legend:
[1] = molecular target: Phosphodiesterase 3B (Bos taurus, UniProt E1BN64); test: Inhibition of bovine heart phosphodiesterase 3
[2] = molecular target: Phosphodiesterase 1 (Bos taurus, UniProt Q01061+P14100); test: Inhibition of bovine aorta phosphodiesterase 1; type: protein assay
[3] = molecular target: cGMP-specific 3',5'-cyclic phosphodiesterase (Bos taurus, UniProt Q28156); test: Inhibition of bovine lung phosphodiesterase 5
[4] = molecular target: cGMP-dependent 3',5'-cyclic phosphodiesterase (Homo sapiens, UniProt O00408); test: Inhibition of phosphodiesterase 2
[5] = molecular target: Phosphodiesterase 4 (Homo sapiens, UniProt P27815+Q08499+Q07343+Q08493); test: Inhibition of phosphodiesterase 4; type: protein assay

Chain of cGMP-dependent 3',5'-cyclic phosphodiesterase (O00408 whole entry): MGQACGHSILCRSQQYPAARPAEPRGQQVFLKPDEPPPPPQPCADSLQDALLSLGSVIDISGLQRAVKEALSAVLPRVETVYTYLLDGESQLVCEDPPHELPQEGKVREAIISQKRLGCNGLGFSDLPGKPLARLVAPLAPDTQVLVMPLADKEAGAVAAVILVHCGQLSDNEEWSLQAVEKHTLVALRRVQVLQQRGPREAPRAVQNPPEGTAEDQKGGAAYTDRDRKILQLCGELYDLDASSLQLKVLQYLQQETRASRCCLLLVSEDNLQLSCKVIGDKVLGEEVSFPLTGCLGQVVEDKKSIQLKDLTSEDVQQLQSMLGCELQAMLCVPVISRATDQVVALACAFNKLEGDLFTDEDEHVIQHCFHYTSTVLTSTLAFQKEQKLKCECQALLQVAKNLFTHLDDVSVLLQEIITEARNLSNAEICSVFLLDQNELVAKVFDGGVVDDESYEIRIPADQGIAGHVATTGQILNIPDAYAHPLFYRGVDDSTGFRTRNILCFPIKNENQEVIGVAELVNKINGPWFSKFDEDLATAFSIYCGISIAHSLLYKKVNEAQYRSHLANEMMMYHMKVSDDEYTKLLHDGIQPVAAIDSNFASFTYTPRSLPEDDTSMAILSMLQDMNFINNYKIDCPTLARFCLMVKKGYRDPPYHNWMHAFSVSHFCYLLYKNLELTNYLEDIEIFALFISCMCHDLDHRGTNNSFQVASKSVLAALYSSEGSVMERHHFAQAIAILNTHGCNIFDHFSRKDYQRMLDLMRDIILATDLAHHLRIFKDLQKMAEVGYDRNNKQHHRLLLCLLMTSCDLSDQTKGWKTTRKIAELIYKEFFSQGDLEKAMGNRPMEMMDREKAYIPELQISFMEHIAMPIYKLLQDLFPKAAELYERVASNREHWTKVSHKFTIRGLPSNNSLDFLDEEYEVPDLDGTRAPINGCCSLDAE
Chain of Phosphodiesterase 3B (E1BN64 whole entry): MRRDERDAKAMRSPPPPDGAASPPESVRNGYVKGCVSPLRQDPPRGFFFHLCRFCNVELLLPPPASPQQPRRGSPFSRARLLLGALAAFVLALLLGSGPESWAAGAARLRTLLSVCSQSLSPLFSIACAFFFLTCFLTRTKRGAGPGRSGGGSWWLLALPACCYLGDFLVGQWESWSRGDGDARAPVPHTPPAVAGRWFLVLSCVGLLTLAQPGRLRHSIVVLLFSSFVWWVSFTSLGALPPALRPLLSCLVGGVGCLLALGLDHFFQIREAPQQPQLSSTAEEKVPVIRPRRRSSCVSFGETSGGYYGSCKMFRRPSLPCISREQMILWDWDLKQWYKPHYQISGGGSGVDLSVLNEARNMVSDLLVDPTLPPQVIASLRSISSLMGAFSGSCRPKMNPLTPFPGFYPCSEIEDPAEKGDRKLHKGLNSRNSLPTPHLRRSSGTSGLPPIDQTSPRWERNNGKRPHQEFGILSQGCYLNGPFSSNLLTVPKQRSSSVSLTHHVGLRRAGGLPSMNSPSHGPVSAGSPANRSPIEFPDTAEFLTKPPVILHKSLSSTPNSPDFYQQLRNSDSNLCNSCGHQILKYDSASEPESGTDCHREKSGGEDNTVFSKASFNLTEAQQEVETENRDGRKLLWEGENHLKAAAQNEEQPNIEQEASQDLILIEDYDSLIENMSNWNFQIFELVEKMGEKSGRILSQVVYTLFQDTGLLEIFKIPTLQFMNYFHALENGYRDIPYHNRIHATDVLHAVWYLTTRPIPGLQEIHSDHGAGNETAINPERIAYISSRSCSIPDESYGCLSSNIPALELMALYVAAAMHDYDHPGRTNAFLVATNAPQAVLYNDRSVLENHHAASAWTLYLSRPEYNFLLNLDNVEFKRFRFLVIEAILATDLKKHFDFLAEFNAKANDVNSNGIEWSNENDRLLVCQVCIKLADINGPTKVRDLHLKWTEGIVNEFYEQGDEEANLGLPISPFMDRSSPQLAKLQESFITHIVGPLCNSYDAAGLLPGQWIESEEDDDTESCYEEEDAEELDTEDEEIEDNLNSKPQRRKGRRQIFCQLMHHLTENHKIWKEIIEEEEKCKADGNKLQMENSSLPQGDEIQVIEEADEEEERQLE

- IC50 [1]: > 100 µM
- IC50 [2]: 0.11 µM
- IC50 [3]: 0.19 µM
- IC50 [4]: 17 µM
- IC50 [5]: 2.2 µM
Compound: CN1C(=O)c2c(nc(-c3ccc(C4CCCCC4)cc3)n2Cc2ccccc2)N2CC3(CCCC3)N=C12
